Experimental data published in patent US9849114B2, “Oxymetazoline for the treatment of ano-rectal disorders” (RDD Pharma Ltd., priority 2011, dated 2017).
Where a name gives a salt, the structure may show the parent alone.

Key:
Healthy volunteers = test: Resting anal pressure by anorectal manometry after intraanal administration (Example 1); format: in vivo, human
Procedure: Preparations of phenylephrine hydrochloride and oxymetazoline were prepared. The oxymetazoline was first dissolved in propylene glycol and then added to polyethylene glycol 1500 to obtain a solution in the concentration of 1 mg/1 mL.
The preparations were administered intraanally. The doses are expressed as both a volume of a concentration of the drug solution and also as milligrams of the active ingredient.
Resting anal pressure was determined by anorectal manometry for measuring contractility in the anus and rectum using the ManoScan 360™ catheter (Sierra Scientific Instruments).
Healthy volunteers, men and women of 18 to 55 years old received intraanal dose of 40 mg (40 mL) or 80 mg (80 mL) phenylephrine or a dose of 1 mg oxymetazoline (1 mL; 0.1%). None of the volunteers had symptoms of anal incontinence nor previous anal surgery and presumed to have intact internal and external anal sphincters. Pre-treatment mean resting pressure was 85 mmHg for the phenyephrine 40 mg group, and 81 mmHg for the phenylephrine 80 mg group.
After the application of the aforementioned doses of phenylephrine and oxymetazoline, resting anal pressure was determined at the following time intervals: […], […] The results are summarized in Tables 1 and 2 below and in FIG. 1.

healthy human subjects [1] = test: Change in resting anal pressure at different oxymetazoline doses (Example 2); format: in vivo
healthy human subjects [2] = test: Cardiac effect of oxymetazoline: blood pressure and heart rate (Example 2); format: in vivo
From the text: The effect of oxymetazoline on cardiac parameters was examined in four healthy human subjects.

[3] = Solubility of oxymetazoline; format: physicochemical; conditions: aqueous and non aqueous media
[4] = tested on: patient having a reduced anal resting pressure; conditions: phenylephrine concentrations below 10%, topical; cited from earlier work
[5] = on lowering the pH of formulations, even with PVPs or PEGs; cited from earlier work
[6] = oxymetazoline 1 mg (1 mL; 0.1%) intraanal, time 0 min
[7] = oxymetazoline 1 mg (1 mL; 0.1%) intraanal, time 60 min
[8] = oxymetazoline 1 mg (1 mL; 0.1%) intraanal, time 180 min
[9] = oxymetazoline 1 mg (1 mL; 0.1%) intraanal, time 300 min
[10] = Phenylephrine 40 mg intraanal, time 90 min
[11] = Phenylephrine 40 mg intraanal, time 180 min
[12] = Phenylephrine 40 mg intraanal, time 240 min
[13] = Phenylephrine 80 mg intraanal, time 90 min
[14] = Phenylephrine 80 mg intraanal, time 180 min
[15] = Phenylephrine 80 mg intraanal, time 240 min

For `Cc1cc(C(C)(C)C)c(O)c(C)c1CC1=NCCN1` [Oxymetazoline, 3-(4,5-dihydro-1H-imidazol-2-ylmethyl)-2,4-dimethyl-6-tert-butyl-phenol], the “Change Relative to T = 0 (resting anal pressure)” value (Healthy volunteers; [6]) was 0 mmHg, the Resting anal pressure (Healthy volunteers; [6]) was 75 mmHg and the “Change Relative to T = 0 (resting anal pressure)” value (Healthy volunteers; [7]) was 18 mmHg. The Resting anal pressure (Healthy volunteers; [7]) was 93 mmHg, the “Change Relative to T = 0 (resting anal pressure)” value (Healthy volunteers; [8]) was 28 mmHg and the Resting anal pressure (Healthy volunteers; [8]) was 103 mmHg. The “Change Relative to T = 0 (resting anal pressure)” value (Healthy volunteers; [9]) was 27 mmHg, the Resting anal pressure (Healthy volunteers; [9]) was 102 mmHg and the “Increase in the maximum resting pressure relative to the pressure before treatment” value (Healthy volunteers; oxymetazoline 1 mg intraanal) was “about 30 mmHg”. For the same compound, the “Time for which the increased resting anal pressure was maintained” value (Healthy volunteers; oxymetazoline 1 mg intraanal, duration of the recording) was “at least 5 hours”, the “Change in resting anal pressure” value (healthy human subjects [1]; Oxymetazoline dose 0.01%) was 11 mmHg and the “Change in resting anal pressure” value (healthy human subjects [1]; Oxymetazoline dose 0.1%) was 18.5 mmHg. The “Significance of change in resting anal pressure with respect to baseline” value (healthy human subjects [1]; Oxymetazoline dose 0.1%) was “statistically significant”, the “Change in resting anal pressure” value (healthy human subjects [1]; Oxymetazoline dose 0.5%) was 24.75 mmHg and the “Significance of change in resting anal pressure with respect to baseline” value (healthy human subjects [1]; Oxymetazoline dose 0.5%) was “statistically significant”. For the same compound, the “Change in diastolic blood pressure” value (healthy human subjects [2]; Oxymetazoline dose 0.01%) was 2 mmHg, the “Change in heart rate” value (healthy human subjects [2]; Oxymetazoline dose 0.01%) was −3 beats/min and the “Change in systolic Blood pressure” value (healthy human subjects [2]; Oxymetazoline dose 0.01%) was 6 mmHg. The “Change in diastolic blood pressure” value (healthy human subjects [2]; Oxymetazoline dose 0.1%) was 0 mmHg, the “Change in heart rate” value (healthy human subjects [2]; Oxymetazoline dose 0.1%) was 0 beats/min and the “Change in systolic Blood pressure” value (healthy human subjects [2]; Oxymetazoline dose 0.1%) was 5 mmHg. The “Change in diastolic blood pressure” value (healthy human subjects [2]; Oxymetazoline dose 0.5%) was 1 mmHg, the “Change in heart rate” value (healthy human subjects [2]; Oxymetazoline dose 0.5%) was 1 beats/min and the “Change in systolic Blood pressure” value (healthy human subjects [2]; Oxymetazoline dose 0.5%) was 3 mmHg. For the same compound, the “Changes in the diastolic blood pressure, systolic blood pressure or in the heart rate” value (healthy human subjects [2]; low doses of about 0.1%) was “did not induce any changes”, the Cardiovascular side effect (healthy human subjects [2]; low doses of oxymetazoline (0.01%-0.5%)) was “do not induce any cardiovascular side effect” and the Solubility [3] was “soluble in aqueous and non aqueous media”.
For `CNC[C@H](O)c1cccc(O)c1` [Phenylephrine], the “Maximum increase in anal pressure” value (Healthy volunteers; 40 mg phenylephrine intraanal) was 10 mmHg, the “Time to reach the initial (pre-treatment) resting anal pressure” value (Healthy volunteers; 40 mg phenylephrine intraanal) was “less than 5 hours” and the “Maximum increase in anal pressure” value (Healthy volunteers; 80 mg phenylephrine intraanal) was 22.5 mmHg. The “Time in which increased pressure dropped nearly to the pressure prior to treatment” value (Healthy volunteers; 80 mg phenylephrine intraanal) was ≤ 3 h, the “Time in which resting anal pressure dropped down to the pressure observed prior to treatment” value (Healthy volunteers; 80 mg phenylephrine intraanal) was “less than 5 hours” and the “Change Relative to T = 0 (resting anal pressure)” value (Healthy volunteers; Phenylephrine 40 mg intraanal, time 0 min) was 0 mmHg. For the same compound, the Resting anal pressure (Healthy volunteers; Phenylephrine 40 mg intraanal, time 0 min (pre-treatment)) was 85 mmHg, the “Change Relative to T = 0 (resting anal pressure)” value (Healthy volunteers; [10]) was 10 mmHg and the Resting anal pressure (Healthy volunteers; [10]) was 95 mmHg. The “Change Relative to T = 0 (resting anal pressure)” value (Healthy volunteers; [11]) was 7.5 mmHg, the Resting anal pressure (Healthy volunteers; [11]) was 92.5 mmHg and the “Change Relative to T = 0 (resting anal pressure)” value (Healthy volunteers; [12]) was 0 (±1.75) mmHg. For the same compound, the Resting anal pressure (Healthy volunteers; [12]) was 83.25 mmHg, the “Change Relative to T = 0 (resting anal pressure)” value (Healthy volunteers; Phenylephrine 80 mg intraanal, time 0 min) was 0 mmHg and the Resting anal pressure (Healthy volunteers; Phenylephrine 80 mg intraanal, time 0 min (pre-treatment)) was 81 mmHg. The “Change Relative to T = 0 (resting anal pressure)” value (Healthy volunteers; [13]) was 22.5 mmHg, the Resting anal pressure (Healthy volunteers; [13]) was 103.5 mmHg and the “Change Relative to T = 0 (resting anal pressure)” value (Healthy volunteers; [14]) was 6.75 mmHg. For the same compound, the Resting anal pressure (Healthy volunteers; [14]) was 87.75 mmHg, the “Change Relative to T = 0 (resting anal pressure)” value (Healthy volunteers; [15]) was 0 (±1.75) mmHg and the Resting anal pressure (Healthy volunteers; [15]) was 80.25 mmHg. The “Increase in the maximum resting pressure” value [4] was “no significant increase”.
For `Cc1cc(C(C)(C)C)c(O)c(C)c1CC1=NCCN1` [oxymetazoline HCl, 6-tert-butyl-3-(2-imidazolin-2-ylmethyl)-2,4-dimentylphenol hydrochloride], the Photodegradation level [5] is listed as “significantly reduced”.
